Experimental data as given in patent US9745311B2, “Substituted pyrrolo[2,3-b]pyrazines as FGFR inhibitors” (Incyte Corporation, priority 2012, dated 2017).
Where two headings read alike, the source gives them in different places.

Key:
FGFR3 enzyme (Millipore) = FGFR3 enzyme (Millipore) (Homo sapiens (Human), UniProt P22607); conditions: read-out: FGFR3 IC50, ATP 140 μM
Experimental: (§1) The inhibitor potency of compounds was measured in an enzyme assay that measures peptide phosphorylation using FRET measurements to detect product formation. Inhibitors were serially diluted in DMSO and a volume of 0.5 μL was transferred to the wells of a 384-well plate. For FGFR3, a 10 μL volume of FGFR3 enzyme (Millipore) diluted in assay buffer (50 mM HEPES, 10 mM MgCl2, 1 mM EGTA, 0.01% Tween-20, 5 mM DTT, pH 7.5) was added to the plate and pre-incubated for 5-10 minutes. Appropriate controls (enzyme blank and enzyme with no inhibitor) were included on the plate. […] The plate was incubated at 25° C. for 1 hr. […] The plate was allowed to equilibrate for ˜1 hr before scanning the wells on a PheraStar plate reader.
(§2) GraphPad prism3 was used to analyze the data. The IC50 values were derived by fitting the data to the equation for a sigmoidal dose-response with a variable slope. Y=Bottom+(Top−Bottom)/(1+10^((Log IC50−X)*HillSlope)) where X is the logarithm of concentration and Y is the response.

FGFR2 = FGFR2 (Homo sapiens (Human), UniProt P21802); experiment: FGFR Enzymatic Assay (FGFR2); format: biochemical;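 note: FRET read-out of peptide phosphorylation by the purified kinase, with enzyme-free blank and uninhibited enzyme as controls, potency from a variable-slope sigmoidal dose-response fit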
FGFR2, sequence (P21802 22-821): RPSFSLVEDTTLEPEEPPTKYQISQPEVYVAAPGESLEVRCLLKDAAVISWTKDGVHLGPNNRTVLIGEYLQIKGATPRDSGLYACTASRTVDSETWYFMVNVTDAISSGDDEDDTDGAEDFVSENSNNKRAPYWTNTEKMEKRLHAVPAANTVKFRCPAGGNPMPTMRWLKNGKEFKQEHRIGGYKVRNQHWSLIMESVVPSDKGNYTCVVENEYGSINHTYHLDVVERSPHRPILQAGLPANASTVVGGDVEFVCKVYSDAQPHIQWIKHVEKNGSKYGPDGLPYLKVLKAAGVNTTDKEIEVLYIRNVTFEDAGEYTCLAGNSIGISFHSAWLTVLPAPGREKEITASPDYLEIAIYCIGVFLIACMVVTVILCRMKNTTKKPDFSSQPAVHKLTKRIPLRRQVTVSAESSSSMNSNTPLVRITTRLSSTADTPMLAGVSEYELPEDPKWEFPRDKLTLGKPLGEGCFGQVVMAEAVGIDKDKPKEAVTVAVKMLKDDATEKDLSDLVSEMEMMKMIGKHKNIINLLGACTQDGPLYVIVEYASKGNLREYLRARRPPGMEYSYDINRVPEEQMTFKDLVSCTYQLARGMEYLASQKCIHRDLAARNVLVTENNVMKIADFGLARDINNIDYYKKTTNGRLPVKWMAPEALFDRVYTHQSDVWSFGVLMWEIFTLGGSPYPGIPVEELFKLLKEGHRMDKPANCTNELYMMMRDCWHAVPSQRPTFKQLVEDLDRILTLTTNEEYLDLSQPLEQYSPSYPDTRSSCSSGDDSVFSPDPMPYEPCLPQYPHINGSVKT
Experimental: as §1, §2

FGFR1 = FGFR1 (Homo sapiens (Human), UniProt P11362); experiment: FGFR Enzymatic Assay (FGFR1); format: biochemical; conditions: enzyme 0.02 nM, ATP 210 μM
FGFR1, sequence (P11362 22-822): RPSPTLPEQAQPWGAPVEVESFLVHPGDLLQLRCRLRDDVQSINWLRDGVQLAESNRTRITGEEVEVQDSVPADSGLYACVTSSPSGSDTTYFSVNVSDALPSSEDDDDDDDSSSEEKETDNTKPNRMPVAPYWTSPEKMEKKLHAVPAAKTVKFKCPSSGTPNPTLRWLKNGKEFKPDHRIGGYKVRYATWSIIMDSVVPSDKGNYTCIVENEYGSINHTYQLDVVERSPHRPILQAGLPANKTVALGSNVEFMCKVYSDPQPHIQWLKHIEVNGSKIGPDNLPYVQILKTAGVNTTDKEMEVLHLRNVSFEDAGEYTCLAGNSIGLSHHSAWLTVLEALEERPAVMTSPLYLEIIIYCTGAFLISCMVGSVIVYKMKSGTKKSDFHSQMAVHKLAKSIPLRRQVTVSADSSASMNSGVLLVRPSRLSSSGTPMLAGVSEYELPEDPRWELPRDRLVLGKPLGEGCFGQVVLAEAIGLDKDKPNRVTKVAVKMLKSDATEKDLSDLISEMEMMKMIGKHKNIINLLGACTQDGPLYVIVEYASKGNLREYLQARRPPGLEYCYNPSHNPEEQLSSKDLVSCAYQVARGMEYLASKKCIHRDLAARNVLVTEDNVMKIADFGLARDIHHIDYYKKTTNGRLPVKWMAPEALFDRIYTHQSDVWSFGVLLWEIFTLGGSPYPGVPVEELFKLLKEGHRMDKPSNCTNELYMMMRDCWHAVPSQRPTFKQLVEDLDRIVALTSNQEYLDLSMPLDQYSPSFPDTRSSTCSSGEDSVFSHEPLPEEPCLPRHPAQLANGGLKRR
Experimental: as §1, §2

[1] = enzyme 0.01 nM, ATP 100 μM, read-out: FGFR2 IC50

FGFR3 enzyme (Millipore), sequence (P22607 23-806): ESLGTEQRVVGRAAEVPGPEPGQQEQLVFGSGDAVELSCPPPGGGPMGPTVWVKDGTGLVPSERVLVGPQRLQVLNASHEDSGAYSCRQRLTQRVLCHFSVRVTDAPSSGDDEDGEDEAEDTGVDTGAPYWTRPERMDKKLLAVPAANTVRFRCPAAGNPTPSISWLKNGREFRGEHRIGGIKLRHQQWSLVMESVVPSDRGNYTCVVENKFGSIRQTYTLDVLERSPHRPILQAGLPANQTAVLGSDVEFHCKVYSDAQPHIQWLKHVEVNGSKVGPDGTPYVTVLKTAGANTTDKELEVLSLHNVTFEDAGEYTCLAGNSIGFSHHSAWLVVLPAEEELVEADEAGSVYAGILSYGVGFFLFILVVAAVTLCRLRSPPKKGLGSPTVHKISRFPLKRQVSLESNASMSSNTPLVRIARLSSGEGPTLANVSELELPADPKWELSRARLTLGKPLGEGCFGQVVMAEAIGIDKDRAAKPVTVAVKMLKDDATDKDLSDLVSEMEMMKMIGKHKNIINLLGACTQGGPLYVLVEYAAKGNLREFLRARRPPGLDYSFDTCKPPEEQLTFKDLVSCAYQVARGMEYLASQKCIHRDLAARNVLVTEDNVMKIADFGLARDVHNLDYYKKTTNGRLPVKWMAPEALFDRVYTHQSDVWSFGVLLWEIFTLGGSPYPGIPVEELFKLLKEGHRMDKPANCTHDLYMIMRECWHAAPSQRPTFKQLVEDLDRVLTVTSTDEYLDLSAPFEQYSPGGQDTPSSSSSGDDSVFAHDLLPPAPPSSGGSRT

## COc1cc(CCc2cnc3[nH]c(C(=O)N(C)C)cc3n2)cc(OC)c1 [Example 26, 2-[2-(3,5-dimethoxyphenyl)ethyl]-N,N-dimethyl-5H-pyrrolo[2,3-b]pyrazine-6-carboxamide]
FGFR3 enzyme (Millipore); numeric bounds
  IC50: > 2000 nM
FGFR2; [1]
  IC50: 500 to 2700 nM

## COc1ccc(-c2cc3nc(CCc4cc(OC)cc(OC)c4)cnc3[nH]2)cc1 [Example 5, 2-[2-(3,5-dimethoxyphenyl)ethyl]-6-(4-methoxyphenyl)-5H-pyrrolo[2,3-b]pyrazine]
FGFR3 enzyme (Millipore); class symbols
  IC50: < 100 nM
FGFR1
  IC50: < 100 nM
FGFR2; [1]
  IC50: < 100 nM

## COc1cc(CCc2cnc3[nH]c(-c4ccc(F)c(C#N)c4)cc3n2)cc(OC)c1 [Example 65, 5-(2-(3,5-Dimethoxyphenethyl)-5H-pyrrolo[2,3-b]pyrazin-6-yl)-2-fluorobenzonitrile]
FGFR1
  IC50: < 100 nM
FGFR2; [1]
  IC50: < 100 nM

## COc1cc(CCc2cnc3[nH]c(-c4ccc(N5CCN(C)CC5)cc4)c(C#N)c3n2)cc(OC)c1 [Example 45, 2-[2-(3,5-dimethoxyphenyl)ethyl]-6-[4-(4-methylpiperazin-1-yl)phenyl]-5H-pyrrolo[2,3-b]pyrazine-7-carbonitrile]
FGFR3 enzyme (Millipore); class symbols
  IC50: < 100 nM
FGFR1
  IC50: < 100 nM
FGFR2; [1]
  IC50: < 100 nM

## COc1cc(CCc2cnc3[nH]c(-c4ccc5c(cnn5C)c4)cc3n2)cc(OC)c1 [Example 62, 2-(3,5-Dimethoxyphenethyl)-6-(1-methyl-1H-indazol-5-yl)-5H-pyrrolo[2,3-b]pyrazine]
FGFR3 enzyme (Millipore); class symbols
  IC50: < 100 nM
FGFR1
  IC50: < 100 nM
FGFR2; [1]
  IC50: < 100 nM

## COc1cc(CCc2cnc3[nH]c(-c4ccc5c(c4)CC(=O)N5)cc3n2)cc(OC)c1 [Example 80, 5-(2-(3,5-Dimethoxyphenethyl)-5H-pyrrolo[2,3-b]pyrazin-6-yl)indolin-2-one]
FGFR3 enzyme (Millipore); class symbols
  IC50: < 100 nM
FGFR1
  IC50: < 100 nM
FGFR2; [1]
  IC50: < 100 nM

## CNC(=O)c1cc2nc(CCc3c(F)c(OC)cc(OC)c3F)cnc2[nH]1 [Example 89, 2-(2,6-difluoro-3,5-dimethoxyphenethyl)-N-methyl-5H-pyrrolo[2,3-b]pyrazine-6-carboxamide]
FGFR3 enzyme (Millipore); numeric bounds
  IC50: > 400 nM
FGFR1
  IC50: < 100 nM
FGFR2; [1]
  IC50: < 100 nM

## COc1cc(CCc2cnc3[nH]c(-c4ccc(CO)cc4)cc3n2)cc(OC)c1 [Example 13, (4-{2-[2-(3,5-dimethoxyphenyl)ethyl]-5H-pyrrolo[2,3-b]pyrazin-6-yl}phenyl)methanol]
FGFR3 enzyme (Millipore); class symbols
  IC50: < 100 nM
FGFR1
  IC50: < 100 nM
FGFR2; [1]
  IC50: < 100 nM

## COc1cc(CCc2cnc3[nH]c(-c4ccc(N5CCC(O)CC5)cc4)cc3n2)cc(OC)c1 [Example 77, 1-(4-(2-(3,5-Dimethoxyphenethyl)-5H-pyrrolo[2,3-b]pyrazin-6-yl)phenyl)piperidin-4-ol]
FGFR3 enzyme (Millipore); class symbols
  IC50: < 100 nM
FGFR1
  IC50: < 100 nM
FGFR2; [1]
  IC50: < 100 nM

## COc1cc(CCc2cnc3[nH]c(-c4cnn(C(C)CC#N)c4)cc3n2)cc(OC)c1 (stereo not shown) [Example 36, 3-(4-(2-(3,5-dimethoxyphenethyl)-5H-pyrrolo[2,3-b]pyrazin-6-yl)-1H-pyrazol-1-l)butanenitrile]
FGFR3 enzyme (Millipore); class symbols
  IC50: < 100 nM
FGFR1
  IC50: < 100 nM
FGFR2; [1]
  IC50: < 100 nM

## COc1cc(CCc2cnc3[nH]c(-c4ccc(N5CCN(C)CC5)cc4)cc3n2)c(F)c(OC)c1 [Example 82, 2-(2-Fluoro-3,5-dimethoxyphenethyl)-6-(4-(4-methylpiperazin-1-yl)phenyl)-5H-pyrrolo[2,3-b]pyrazine]
FGFR3 enzyme (Millipore); class symbols
  IC50: < 100 nM
FGFR1
  IC50: < 100 nM
FGFR2; [1]
  IC50: < 100 nM

## COc1cc(CCc2cnc3[nH]c(-c4cnn(C(CC#N)C5CCCC5)c4)cc3n2)cc(OC)c1 (stereo not shown) [Example 35, 3-cyclopentyl-3-(4-{2-[2-(3,5-dimethoxyphenyl)ethyl]-5H-pyrrolo[2,3-b]pyrazin-6-yl}-1H-pyrazol-1-yl)propanenitrile]
FGFR3 enzyme (Millipore); class symbols
  IC50: < 100 nM
FGFR1
  IC50: < 100 nM
FGFR2; [1]
  IC50: < 100 nM

## COc1cc(CCc2cnc3[nH]c(-c4cnn(CC(C)(C)O)c4)cc3n2)cc(OC)c1 [Example 33, 1-(4-{2-[2-(3,5-dimethoxyphenyl)ethyl]-5H-pyrrolo[2,3-b]pyrazin-6-yl}-1H-pyrazol-1-yl)-2-methylpropan-2-ol]
FGFR3 enzyme (Millipore); class symbols
  IC50: < 100 nM
FGFR1
  IC50: < 100 nM
FGFR2; [1]
  IC50: < 100 nM

## COc1cc(CCc2cnc3[nH]c(-c4cccc(N5CCNCC5)c4)cc3n2)cc(OC)c1 [Example 78, 2-(3,5-Dimethoxyphenethyl)-6-(3-(piperazin-1-yl)phenyl)-5H-pyrrolo[2,3-b]pyrazine]
FGFR3 enzyme (Millipore); class symbols
  IC50: < 100 nM
FGFR1
  IC50: < 100 nM
FGFR2; [1]
  IC50: < 100 nM

## COc1cc(CCc2cnc3[nH]c(-c4cnc(N(C)C)nc4)cc3n2)cc(OC)c1 [Example 20, 5-{2-[2-(3,5-dimethoxyphenyl)ethyl]-5H-pyrrolo[2,3-b]pyrazin-6-yl}-N,N-dimethylpyrimidin-2-amine]
FGFR3 enzyme (Millipore); numeric bounds
  IC50: > 1000 nM
FGFR1
  IC50: < 100 nM
FGFR2
  IC50: 100 to 500 nM

## CCN(CC)CCCc1cc2nc(CCc3cc(OC)cc(OC)c3)cnc2[nH]1 [Example 28, 3-{2-[2-(3,5-dimethoxyphenyl)ethyl]-5H-pyrrolo[2,3-b]pyrazin-6-yl}-N,N-diethylpropan-1-amine]
FGFR3 enzyme (Millipore); numeric bounds
  IC50: > 2000 nM

## COc1cc(CCc2cnc3[nH]c(-c4cnn(CCN5CCC(O)CC5)c4)cc3n2)cc(OC)c1 [Example 40, 1-[2-(4-{2-[2-(3,5-dimethoxyphenyl)ethyl]-5H-pyrrolo[2,3-b]pyrazin-6-yl}-1H-pyrazol-1-yl)ethyl]piperidin-4-ol]
FGFR3 enzyme (Millipore); class symbols
  IC50: < 100 nM
FGFR1
  IC50: < 100 nM
FGFR2; [1]
  IC50: < 100 nM

## COc1cc(CCc2cnc3[nH]c(C4CCN(C)CC4)cc3n2)cc(OC)c1 [Example 24, 2-[2-(3,5-dimethoxyphenyl)ethyl]-6-(1-methylpiperidin-4-yl)-5H-pyrrolo[2,3-b]pyrazine]
FGFR3 enzyme (Millipore); numeric bounds
  IC50: > 2000 nM

## CNC(=O)c1ccc(-c2cc3nc(CCc4cc(OC)cc(OC)c4)cnc3[nH]2)cc1F [Example 57, 4-(2-(3,5-Dimethoxyphenethyl)-5H-pyrrolo[2,3-b]pyrazin-6-yl)-2-fluoro-N-methylbenzamide]
FGFR3 enzyme (Millipore); class symbols
  IC50: < 100 nM
FGFR1
  IC50: < 100 nM
FGFR2; [1]
  IC50: < 100 nM

## CNC(=O)c1cc2nc(CCc3cc(OC)cc(OC)c3)cnc2[nH]1 [Example 25, 2-[2-(3,5-dimethoxyphenyl)ethyl]-N-methyl-5H-pyrrolo[2,3-b]pyrazine-6-carboxamide]
FGFR3 enzyme (Millipore); numeric bounds
  IC50: > 2000 nM

## COc1cc(CCc2cnc3[nH]c(-c4ccc(C(=O)O)cc4)cc3n2)cc(OC)c1 [Example 15, 4-{2-[2-(3,5-dimethoxyphenyl)ethyl]-5H-pyrrolo[2,3-b]pyrazin-6-yl}benzoic acid]
FGFR3 enzyme (Millipore); class symbols
  IC50: < 100 nM
FGFR1
  IC50: < 100 nM
FGFR2; [1]
  IC50: < 100 nM

## COc1cc(CCc2cnc3[nH]c(-c4ccnc(N5CCNCC5)c4)cc3n2)cc(OC)c1 [Example 64, 2-(3,5-Dimethoxyphenethyl)-6-(2-(piperazin-1-yl)pyridin-4-yl)-5H-pyrrolo[2,3-b]pyrazine]
FGFR3 enzyme (Millipore); class symbols
  IC50: < 100 nM
FGFR1
  IC50: < 100 nM
FGFR2; [1]
  IC50: < 100 nM

## COc1cc(CCc2cnc3[nH]c(-c4ccccc4)cc3n2)cc(OC)c1 [Example 3, 2-(3,5-dimethoxyphenethyl)-6-phenyl-5H-pyrrolo[2,3-b]pyrazine]
FGFR3 enzyme (Millipore); class symbols
  IC50: < 100 nM
FGFR1
  IC50: < 100 nM
FGFR2; [1]
  IC50: < 100 nM

## CCc1c(-c2ccc(N3CCN(C)CC3)cc2)[nH]c2ncc(CCc3cc(OC)cc(OC)c3)nc12 [Example 52, 2-[2-(3,5-dimethoxyphenyl)ethyl]-7-ethyl-6-[4-(4-methylpiperazin-1-yl)phenyl]-5H-pyrrolo[2,3-b]pyrazine]
FGFR3 enzyme (Millipore); class symbols
  IC50: < 100 nM
FGFR1
  IC50: < 100 nM
FGFR2; [1]
  IC50: < 100 nM

## COc1cc(OC)c(F)c(CCc2cnc3[nH]c(-c4cnn(CC(C)(C)O)c4)cc3n2)c1F [Example 88, 1-(4-(2-(2,6-difluoro-3,5-dimethoxyphenethyl)-5H-pyrrolo[2,3-b]pyrazin-6-yl)-1H-pyrazol-1-yl)-2-methylpropan-2-ol]
FGFR3 enzyme (Millipore); class symbols
  IC50: < 100 nM
FGFR1
  IC50: < 100 nM
FGFR2; [1]
  IC50: < 100 nM

## COc1cc(CCc2cnc3[nH]c(-c4cnn(CC(=O)N5CCN(C)CC5)c4)cc3n2)cc(OC)c1 [Example 44, 2-(4-(2-(3,5-dimethoxyphenethyl)-5H-pyrrolo[2,3-b]pyrazin-6-yl)-1H-pyrazol-1-yl)-1-(4-methylpiperazin-1-yl)ethanone]
FGFR3 enzyme (Millipore); class symbols
  IC50: < 100 nM
FGFR1
  IC50: < 100 nM
FGFR2; [1]
  IC50: < 100 nM

## COCc1ccc(-c2cc3nc(CCc4cc(OC)cc(OC)c4)cnc3[nH]2)cc1 [Example 12, 2-[2-(3,5-dimethoxyphenyl)ethyl]-6-[4-(methoxymethyl)phenyl]-5H-pyrrolo[2,3-b]pyrazine]
FGFR3 enzyme (Millipore); class symbols
  IC50: < 100 nM
FGFR1
  IC50: < 100 nM
FGFR2; [1]
  IC50: < 100 nM

## CNC(=O)c1cc(-c2cc3nc(CCc4cc(OC)cc(OC)c4)cnc3[nH]2)ccn1 [Example 73, 4-(2-(3,5-Dimethoxyphenethyl)-5H-pyrrolo[2,3-b]pyrazin-6-yl)-N-methylpicolinamide]
FGFR3 enzyme (Millipore); class symbols
  IC50: < 100 nM
FGFR1
  IC50: < 100 nM
FGFR2; [1]
  IC50: < 100 nM

## COc1cc(CCc2cnc3[nH]c(-c4ccc(N5CCN(C)C(=O)C5)cc4)cc3n2)cc(OC)c1 [Example 81, 4-(4-(2-(3,5-Dimethoxyphenethyl)-5H-pyrrolo[2,3-b]pyrazin-6-yl)phenyl)-1-methylpiperazin-2-one]
FGFR3 enzyme (Millipore); class symbols
  IC50: < 100 nM
FGFR1
  IC50: < 100 nM
FGFR2; [1]
  IC50: < 100 nM

## COc1cc(CCc2cnc3[nH]c(-c4cnn(CCN(C)C)c4)cc3n2)cc(OC)c1 [Example 34, 2-(4-{2-[2-(3,5-dimethoxyphenyl)ethyl]-5H-pyrrolo[2,3-b]pyrazin-6-yl}-1H-pyrazol-1-yl)-N,N-dimethylethanamine]
FGFR3 enzyme (Millipore); class symbols
  IC50: < 100 nM
FGFR1
  IC50: < 100 nM
FGFR2; [1]
  IC50: < 100 nM

## COc1cc(CCc2cnc3[nH]c(-c4ccc(N5CCN(C)CC5)c(C#N)c4)cc3n2)cc(OC)c1 [Example 72, 5-(2-(3,5-Dimethoxyphenethyl)-5H-pyrrolo[2,3-b]pyrazin-6-yl)-2-(4-methylpiperazin-1-yl)benzonitrile]
FGFR1
  IC50: < 100 nM
FGFR2; [1]
  IC50: < 100 nM

## COc1cc(CCc2cnc3[nH]c(-c4ccc5c(c4)OCO5)cc3n2)cc(OC)c1 [Example 21, 6-(1,3-benzodioxol-5-yl)-2-[2-(3,5-dimethoxyphenyl)ethyl]-5H-pyrrolo[2,3-b]pyrazine]
FGFR3 enzyme (Millipore); numeric bounds
  IC50: > 2000 nM
